Key:
smallflower flatsedge = test: Test B flood test smallflower flatsedge; assay type: in vivo, Cyperus difformis
Protocol: (§1) At the same time, these crop and weed species were also treated with postemergence applications of test chemicals formulated in the same manner. Plants ranged in height from 2 to 18 cm (1- to 4-leaf stage) for postemergence treatments. Plant species in the flood test consisted of rice (Oryza sativa), smallflower flatsedge (Cyperus difformis), duck salad (Heteranthera limosa) and bamyardgrass (Echinochloa crus-galli) grown to the 2-leaf stage for testing. Treated plants and controls were maintained in a greenhouse for twelve to sixteen days, after which all species were compared to controls and visually evaluated. Plant response ratings, summarized in Table B, are based on a scale of 0 to 10 where 0 is no effect and 10 is complete control. A dash (−) response means no test result.

rice = test: Test B flood test rice; assay type: in vivo, Oryza sativa
How it was run: (§2)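 Plants were grown to the 2-leaf stage before treatment with test chemical, then held in a greenhouse for twelve to sixteen days. Injury was visually rated against untreated controls on a 0–10 scale, where 0 is no effect and 10 is complete control.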

bamyardgrass = test: Test B flood test barnyardgrass; assay type: in vivo, Echinochloa crus-galli
Protocol: as §1

duck salad = test: Test B flood test duck salad; assay type: in vivo, Heteranthera limosa
How it was run: as §2

bedstraw = test: Test B pre/postemergence bedstraw; assay type: in vivo, Galium aparine
How it was run: (§3)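 Response is a visual 0-to-10 score relative to untreated plants, where 0 means no effect and 10 means complete control, taken twelve to sixteen days after application. Treatments went onto soil at planting and onto foliage of 1- to 4-leaf plants, using a surfactant-containing non-phytotoxic solvent.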

wheat = test: Test B pre/postemergence wheat; assay type: in vivo, Triticum aestivum
How it was run: as §3

corn = test: Test B pre/postemergence corn; assay type: in vivo, Zea mays
How it was run: as §3

pigweed = test: Test B pre/postemergence pigweed; assay type: in vivo, Amaranthus retroflexus
How it was run: as §3

soybean = test: Test B pre/postemergence soybean; assay type: in vivo, Glycine max
How it was run: as §3

rape = test: Test B pre/postemergence rape; assay type: in vivo, Brassica napus
How it was run: as §3

crabgrass = test: Test B pre/postemergence crabgrass; assay type: in vivo, Digitaria sanguinalis
How it was run: as §3

wild oat = test: Test B pre/postemergence wild oat; assay type: in vivo, Avena fatua
How it was run: as §3

sugar beet = test: Test B pre/postemergence sugar beet; assay type: in vivo, Beta vulgaris
How it was run: as §3

morningglory = test: Test B pre/postemergence morningglory; assay type: in vivo, Ipomoea hederacea
How it was run: as §3

cocklebur = test: Test B pre/postemergence cocklebur; assay type: in vivo, Xanthium strumarium
How it was run: as §3

velvetleaf = test: Test B pre/postemergence velvetleaf; assay type: in vivo, Abutilon theophrasti
How it was run: as §3

giant foxtail = test: Test B pre/postemergence giant foxtail; assay type: in vivo, Setaria faberii
How it was run: as §3

purple nutsedge = test: Test B pre/postemergence purple nutsedge; assay type: in vivo, Cyperus rotundus
How it was run: as §3

surinam grass = test: Test B pre/postemergence surinam grass; assay type: in vivo, Brachiaria decumbens
How it was run: as §3

blackgrass = test: Test B pre/postemergence blackgrass; assay type: in vivo, Alopecurus myosuroides
How it was run: as §3

[1] = Rate 62 g/ha, flood test species, Pre-emergence, visual evaluation after twelve to sixteen days
[2] = Rate 125 g/ha, under heading Pre-emergence, flood test species, visual evaluation after twelve to sixteen days
[3] = Rate 250 g/ha, Pre-emergence (flood test species), scale 0 to 10, 0 is no effect, 10 is complete control
[4] = Rate 500 g/ha, Pre-emergence section of Table B, 0 to 10 scale (0 no effect, 10 complete control)
[5] = Postemergence, Rate 31 g/ha, visual rating, scale 0 to 10 (0 no effect, 10 complete control)
[6] = Postemergence, Rate 125 g/ha, scale 0 to 10, 0 is no effect, 10 is complete control
[7] = Postemergence, Rate 250 g/ha, scale 0 to 10, 0 is no effect, 10 is complete control
[8] = Preemergence, Rate 31 g/ha, visual rating, scale 0 to 10 (0 no effect, 10 complete control)
[9] = Preemergence, Rate 62 g/ha, scale 0 to 10 (0 no effect, 10 complete control)
[10] = Preemergence, Rate 250 g/ha, scale of 0 to 10 where 0 is no effect and 10 is complete control
[11] = Rate 62 g/ha, Postemergence, scale of 0 to 10 where 0 is no effect and 10 is complete control

C=C(C(=O)OC)C(C)n1c(=O)on(C(=O)N(c2ccccc2)C(C)C)c1=O (stereo not drawn) [Compound 651]
0: Plant response rating, S. Flatsedge (0 to 10 scale, 0 is no effect, 10 is complete control) (smallflower flatsedge; [1]) | S. Flatsedge plant response rating (0 to 10 scale, 0 is no effect, 10 is complete control) (smallflower flatsedge; [2]) | S. Flatsedge plant response rating (smallflower flatsedge; [3]) | S. Flatsedge plant response rating (smallflower flatsedge; [4]) | Plant response rating, Rice (0 to 10 scale, 0 is no effect, 10 is complete control) (rice; [1]) | Rice plant response rating (0 to 10 scale, 0 is no effect, 10 is complete control) (rice; [2]) | Rice plant response rating (rice; [3]) | Rice plant response rating (rice; [4]) | Plant response rating, Barnyardgrass (0 to 10 scale, 0 is no effect, 10 is complete control) (bamyardgrass; [1]) | Barnyardgrass plant response rating (0 to 10 scale, 0 is no effect, 10 is complete control) (bamyardgrass; [2]) | Barnyardgrass plant response rating (bamyardgrass; [3]) | Barnyardgrass plant response rating (bamyardgrass; [4]) | Plant response rating, Ducksalad (0 to 10 scale, 0 is no effect, 10 is complete control) (duck salad; [1]) | Ducksalad plant response rating (0 to 10 scale, 0 is no effect, 10 is complete control) (duck salad; [2]) | Ducksalad plant response rating (duck salad; [3]) | Ducksalad plant response rating (duck salad; [4])

CC(C)N(C(=O)n1oc(=O)n(C2(C)CC2)c1=O)c1ccc(F)cc1 [Compound 362]
9: Plant response rating, Bedstraw (bedstraw; [6]) | Plant response rating, Bedstraw (bedstraw; [7]) | Plant response rating, Bedstraw (bedstraw; [9]) | Bedstraw plant response rating (0 to 10 scale) (bedstraw; Preemergence, Rate 125 g/ha) | Corn plant response rating (corn; [10]) | Plant response rating, Giant foxtail (giant foxtail; [7]) | Plant response rating, Blackgrass (blackgrass; [9])
6: Plant response rating, Wheat (wheat; [7]) | Plant response rating, Redroot pigweed (pigweed; [7]) | Plant response rating, Soybean (soybean; [7]) | Soybean plant response rating (soybean; [10]) | Rape plant response rating (rape; [10]) | Plant response rating, Crabgrass (crabgrass; [6]) | Plant response rating, Crabgrass (crabgrass; [7]) | Plant response rating, Wild oats (wild oat; [6]) | Plant response rating, Wild oats (wild oat; [7]) | Morningglory plant response rating (morningglory; [10]) | Velvetleaf plant response rating (0 to 10 scale) (velvetleaf; Preemergence, Rate 125 g/ha) | Velvetleaf plant response rating (velvetleaf; [10]) | Giant foxtail plant response rating (giant foxtail; [11]) | B. signalgrass plant response rating (0 to 10 scale, 0 is no effect, 10 is complete control) (surinam grass; Preemergence, Rate 125 g/ha)
10: Bedstraw plant response rating (bedstraw; [10]) | Redroot pigweed plant response rating (0 to 10 scale) (pigweed; Preemergence, Rate 125 g/ha) | Redroot pigweed plant response rating (pigweed; [10]) | Wild oats plant response rating (0 to 10 scale) (wild oat; Preemergence, Rate 125 g/ha) | Wild oats plant response rating (wild oat; [10]) | Plant response rating, Giant foxtail (giant foxtail; [9]) | Giant foxtail plant response rating (0 to 10 scale) (giant foxtail; Preemergence, Rate 125 g/ha) | Giant foxtail plant response rating (giant foxtail; [10]) | Blackgrass plant response rating (0 to 10 scale) (blackgrass; Preemergence, Rate 125 g/ha) | Blackgrass plant response rating (blackgrass; [10])
5: Bedstraw plant response rating (bedstraw; [5]) | Bedstraw plant response rating (bedstraw; [11]) | Plant response rating, Soybean (soybean; [6]) | Plant response rating, Crabgrass (crabgrass; [9]) | Plant response rating, Sugarbeets (sugar beet; [9]) | Giant foxtail plant response rating (giant foxtail; [5]) | Plant response rating, B. signalgrass (surinam grass; [6])
0: Wheat plant response rating (wheat; [5]) | Corn plant response rating (corn; [5]) | Plant response rating, Corn (corn; [6]) | Plant response rating, Corn (corn; [7]) | Corn plant response rating (corn; [8]) | Plant response rating, Corn (corn; [9]) | Corn plant response rating (corn; [11]) | Redroot pigweed plant response rating (pigweed; [5]) | Plant response rating, Soybean (soybean; [9]) | Rape plant response rating (rape; [5]) | Plant response rating, Rape (rape; [6]) | Plant response rating, Rape (rape; [7]) | Plant response rating, Rape (rape; [9]) | Rape plant response rating (rape; [11]) | Wild oats plant response rating (wild oat; [5]) | Sugarbeets plant response rating (sugar beet; [5]) | Plant response rating, Sugarbeets (sugar beet; [6]) | Sugarbeets plant response rating (sugar beet; [11]) | Morningglory plant response rating (morningglory; [5]) | Plant response rating, Morningglory (morningglory; [9]) | Cocklebur plant response rating (cocklebur; [5]) | Plant response rating, Cocklebur (cocklebur; [6]) | Cocklebur plant response rating (cocklebur; [8]) | Plant response rating, Cocklebur (cocklebur; [9]) | Cocklebur plant response rating (0 to 10 scale) (cocklebur; Preemergence, Rate 125 g/ha) | Cocklebur plant response rating (cocklebur; [10]) | Cocklebur plant response rating (cocklebur; [11]) | Velvetleaf plant response rating (velvetleaf; [5]) | Nutsedge plant response rating (purple nutsedge; [5]) | Plant response rating, Nutsedge (purple nutsedge; [6]) | Plant response rating, Nutsedge (purple nutsedge; [7]) | Plant response rating, Nutsedge (purple nutsedge; [9]) | Nutsedge plant response rating (0 to 10 scale) (purple nutsedge; Preemergence, Rate 125 g/ha) | Nutsedge plant response rating (purple nutsedge; [11])
3: Corn plant response rating (0 to 10 scale) (corn; Preemergence, Rate 125 g/ha) | Rape plant response rating (0 to 10 scale) (rape; Preemergence, Rate 125 g/ha) | Crabgrass plant response rating (crabgrass; [5]) | Crabgrass plant response rating (crabgrass; [11]) | Wild oats plant response rating (wild oat; [11]) | Nutsedge plant response rating (purple nutsedge; [10])
1: Soybean plant response rating (0 to 10 scale) (soybean; Preemergence, Rate 125 g/ha) | Plant response rating, Morningglory (morningglory; [6]) | Plant response rating, Morningglory (morningglory; [7]) | Morningglory plant response rating (morningglory; [11]) | Velvetleaf plant response rating (velvetleaf; [11]) | B. signalgrass plant response rating (surinam grass; [5])
8: Bedstraw plant response rating (bedstraw; [8]) | Wheat plant response rating (0 to 10 scale) (wheat; Preemergence, Rate 125 g/ha) | Wheat plant response rating (wheat; [10]) | Plant response rating, Redroot pigweed (pigweed; [9]) | Crabgrass plant response rating (0 to 10 scale) (crabgrass; Preemergence, Rate 125 g/ha) | Crabgrass plant response rating (crabgrass; [10]) | Sugarbeets plant response rating (sugar beet; [10]) | Plant response rating, Giant foxtail (giant foxtail; [6]) | Blackgrass plant response rating (blackgrass; [5]) | Plant response rating, Blackgrass (blackgrass; [6]) | Plant response rating, Blackgrass (blackgrass; [7]) | Blackgrass plant response rating (blackgrass; [8]) | Blackgrass plant response rating (blackgrass; [11])
4: Plant response rating, Wheat (wheat; [6]) | Plant response rating, Redroot pigweed (pigweed; [6]) | Soybean plant response rating (soybean; [5]) | Soybean plant response rating (soybean; [11]) | Morningglory plant response rating (0 to 10 scale) (morningglory; Preemergence, Rate 125 g/ha) | Plant response rating, Velvetleaf (velvetleaf; [6]) | Plant response rating, Velvetleaf (velvetleaf; [9]) | Plant response rating, B. signalgrass (surinam grass; [9])
2: Wheat plant response rating (wheat; [11]) | Redroot pigweed plant response rating (pigweed; [11]) | Plant response rating, Sugarbeets (sugar beet; [7]) | B. signalgrass plant response rating (surinam grass; [8]) | B. signalgrass plant response rating (surinam grass; [11])
7: Plant response rating, Wheat (wheat; [9]) | Plant response rating, Wild oats (wild oat; [9]) | Sugarbeets plant response rating (0 to 10 scale) (sugar beet; Preemergence, Rate 125 g/ha) | Plant response rating, Velvetleaf (velvetleaf; [7]) | Plant response rating, B. signalgrass (surinam grass; [7]) | B. signalgrass plant response rating (surinam grass; [10])
